Test [1] has as its system RSC96 cells (Rat Schwann cells). The test is described as follows: Proliferation of RSC96 cells (CCK-8). Type of test: cell-based. The following applies: 48 hours, 0% serum medium, FIG. 4. As for the experimental part:
Experimental method: Rat Schwann cells (RSC96 cells) were adjusted to a concentration of 1.0*10^5 to 5.0*10^5/mL for passaging, and cultured at 37° C. and 5% CO2 for 24-36 hours for the biological activity detection. The cells were digested by trypsin, collected, prepared into a concentration of 5*10^4/mL with a serum-free medium, seeded in a 96-well cell culture plate with 100 μL per well, i.e., […], and cultured overnight at 37° C. and 5% CO2.
The polypeptide was dissolved in PBS solution and prepared into a stock solution with a concentration of 400 ug/ml. The polypeptide stock solution was prepared with 0% serum medium to test concentrations as the experimental groups; and for the control group, the same volume of 0% serum medium without drugs was added. For all the groups, 4 duplicate wells were incubated at 37° C. and 5% CO2 for 48 hours. The CCK-8 was used to detect cell proliferation: the old medium was removed, the serum-free medium containing 10% CCK-8 was added to each well, and absorbances were measured at 450 nm by microplate reader after incubation in an incubator for 2 hours.

The test system of test [2] is Balb-3T3 cells (mouse embryo fibroblasts). Description: Proliferation of Balb-3T3 cells (CCK-8). The following applies: 48 hours, 2.5% FBS maintenance medium, FIG. 3. Type of test: cell-based. The method, then: Experimental method: Mouse embryo fibroblasts (Balb-3T3 cells) were cultured in 10% serum medium at 37° C. and 5% CO2, the culture fluid was changed every 1-2 days, and the cell concentration was controlled to be 4*10^6 cells/mL for passaging. The cells were collected and prepared into a concentration of 3* 10^4 cells/mL with 2.5% FBS maintenance medium, seeded into a 96-well cell culture plate with 100 uL per well, i.e., 3000 cells/well, and cultured at 37° C. and 5% CO2 to be adherent.
The polypeptide was dissolved in 2.5% FBS maintenance medium and prepared into a stock solution with a concentration of 1 mg/mL. The polypeptide stock solution was prepared with 2.5% FBS maintenance medium to test concentrations as the experimental groups; in the same manner, recombinant human basic fibroblast growth factor FGF (50 ng/mL), and recombinant human platelet derived growth factor PDGF-BB (30 ng/mL) were prepared and added as positive control; and for the blank control group, the same volume of 2.5% FBS maintenance medium was added. For all the groups, 5 duplicate wells were incubated at 37° C. and 5% CO2 for 48 hours. CCK-8 was used to detect cell proliferation: the serum-free medium containing 10% CCK-8 was added to each well, and absorbances were measured at 450 nm by microplate reader after incubation in an incubator for 2 hours.

The subject of test [3] is db/db mice. The test is described as follows: Healing of skin ulcers (full-thickness back wound) in db/db mice. Type of test: in vivo, mouse. The following applies: for Wound healing rate: db/db mice, topical, polypeptide 30 μg/cm^2 qd, GeneTime 40 IU/cm^2 qd, Kangfuxin Ye 40 μL/mouse Bid, Mean ± SD, n = 10. As for the experimental part: Experimental animals: Diabetic model mice (db/db male mice), normal mice (m/m male mice), SPF grade, 8-10 weeks of age, weighting 40-50 g, from Changzhou Cavens Experimental Animal Co., Ltd., with the experimental animal production license number of SCXK (Su) 2016-0010, and the experimental animal use license number of SYXK (Shanghai) 2020-0038.
Experimental method: After the blood glucose of the db/db mice reached the standard (blood glucose after fasting for 4 h>16.7 mmol/L), the mice were randomly divided into 5 groups with 10 mice in each group, namely, normal control group, model control group, Kangfuxin Ye group (40 μL per mouse), GeneTime group (40 IU/cm^2), the subject polypeptide group (30 μg/cm^2). After the mice were anesthetized with isoflurane inhalation, a circular wound with a diameter of about 12 mm was cut on the back of the mice with a cutter from the full layers of the skin to reach the fascia layer. The wound was photographed and the wound area was recorded as the baseline value (the wound was recorded as Day0). From the next day (Day 1), the animals in each group were administered as required, and all the skin wounds were applied externally. Both the normal control group and the model control group were given 40 μL of normal saline, and the GeneTime group (40 IU/cm^2) was given Recombinant human epidermal growth factor topical solution diluted in 40 μL of normal saline (Shenzhen Watsin Genetech Ltd.), and the subject polypeptide group (30 μg/cm^2) was given the corresponding concentration of the polypeptide prepared by using 40 μL normal saline, once a day; the Kangfuxin Ye group was given 40 μL of Kangfuxin Ye (SICHUAN GOODDOCTOR PANXI PHARMACEUTICAL CO., LTD.), twice a day. Administration was continued every day until the wound was basically healed. The skin wounds were measured and photographed twice a week, the areas of the wounds were calculated with the Image-J software, and the healing of the wounds in each group of animals was observed.

Test [4] has as its system SD rats. Description: Healing of full-layer skin defect wound in SD rats. The class given is in vivo, rat. Conditions: for Wound healing rate: SD rats, topical once a day, polypeptide 50 μg/cm^2, comparative polypeptide 1 41.90 μg/cm^2, comparative polypeptide 2 52.66 μg/cm^2, Mean ± SD, n = 8. The method, then: Experimental animals: SD male rats, SPF grade, 6 weeks old, weighing 180-220 g, from Beijing Vital River Laboratory Animal Technology Co., Ltd., with the experimental animal quality certification number of NO.110011220109610345, and the experimental animal use license number of SCXK (Beijing) 2021-0011.
Experimental method: SD rats were randomly divided into […] based on the body weight with 8 animals in each group, namely, vehicle group, the polypeptide group (50 μg/cm^2), comparative polypeptide 1 group (41.90 μg/cm^2) and comparative polypeptide 2 group (52.66 μg/cm^2). The amino acid sequence of comparative polypeptide 1 is Glu-Pro-Val-Pro-Leu; and the amino acid sequence of comparative polypeptide 2 is Pro-Ala-Ala-Glu-Pro-Val-Pro-Leu-Val-Lys-Gln-Glu.
After each experimental rat was anesthetized by intraperitoneal injection of 2% pentobarbital sodium (0.2 mL/100 g), a 2 cm^2 full-layer skin defect wound was prepared at each of both sides of the back spine. After hemostasis of the wound, the corresponding drug was administered at the wound locally by group. Each group was administered once a day, with a dosed volume of 72 μL/wound each time, for 14 consecutive days. After the administration, the wound was covered with a sterile vaseline gauze (5 cm*5 cm), and bandaged with multi-layer sterile gauzes. After the wound surgery, the wound was photographed, and the wound area was recorded as the baseline value (the wound was recorded as Day0). During the administration period, the areas of the wounds were photographed and measured 3 times a week, and the healing was observed.

Ends that are not written are not given here.

With PAAEPVPL [polypeptide], in test [1], the “Proliferation-promoting effect on the RSC96 cell line” value was “significant effect of promoting proliferation”. In addition, the “Proliferation-promoting effect on the Balb-3T3 cell line” value in test [2] is “significant effect of promoting proliferation”. Moreover, the Wound healing rate is on record as 0.00 ± 0.00% in test [3] (Day 0 (baseline)); −4.66 ± 17.55% in test [3] (Day 3); 13.06 ± 17.65% in test [3] (Day 7); 40.91 ± 16.33% in test [3] (Day 10); 89.44 ± 8.99 % in test [3] (Day 14); 0.00 ± 0.00% in test [4] (Day 0 (baseline)). The Wound healing rate in test [4] (Day 3) amounted to 29.70 ± 19.21 %; in test [4] (Day 5), 52.21 ± 11.54 %; in test [4] (Day 7), 74.12 ± 5.95 %; in test [4] (Day 10), 94.55 ± 2.40 %. Moreover, the “Skin wound healing in diabetic mice (statement in words)” value in test [3] (day 14, 30 μg/cm^2 qd, vs model control) is on record as “significantly promote skin wound healing”. Further, the “Healing rate of full-layer skin defect wound (statement in words)” value in test [4] (50 μg/cm^2, days 3-10 after surgery, vs vehicle group) was “higher healing rate with a significant difference”.

Values taken from US20250057910A1, “Application of Polypeptide in Preparation of Product for Preventing or Treating Skin Injury Diseases” (Sichuan Gooddoctor Panxi Pharmaceutical Co., Ltd., priority 2021, published 2025).
